From US5686424A, “2-oxoethyl derivatives as immunosuppressants” (Miles Inc., priority 1995, dated 1997) come the findings set out here.

Read-outs that look alike come from different tables or passages of the source.

One assay deals with FKBP (Homo sapiens, UniProt P62942). Put plainly: PPIase Inhibition Assay. Type of assay: biochemical. How it is done: 1) Inhibition of PPIase Activity
This assay follows in principle the procedure described in Kofron et al., 1991, Biochemistry 30:6127.
The three main reagents used are PPIase, a substrate for PPIase, and a selected inhibitor compound of the present invention. The basic principle behind this assay is the conversion of the cis isomer of the substrate to the trans form, which conversion is catalyzed by PPIase. Essentially, inhibition of this PPIase activity is measured for the selected compounds. A peptide chymotrypsin substrate containing a proline in the P2 position is only cleaved by chymotrypsin when the Phe-Pro bond is in the trans isomeric configuration. In the presence of excess chymotrypsin, all of the trans peptide isomers are cleaved within approximately five seconds, leaving only cis forms.
The cis peptide will spontaneously convert to the trans isomer at a slow rate. The cis to trans conversion is catalyzed by isomerases at a much faster rate than this spontaneous conversion. Proteins with PPIase activity are examples of such isomerases. After isomerization, the peptide is cleaved by chymotrypsin releasing p-nitroaniline which can be monitored at 390 nm. The rate of release is then calculated using a first order rate plus offset equation utilizing the ENZFITTER program (Leatherbarrow, BIOSOFT, Cambridge, United Kingdom).
In a plastic cuvette are added 950 ul of ice cold assay buffer (25 mM HEPES, pH 7.8, 100 mM NaCl), 10 uL of FKBP (2.5 uM in 10 mM Tris-Cl pH 7.5, 100 mM NaCl, 1 mM dithiothreitol), 25 ul of chymotrypsin (50 mg/ml in 1 mM HCl) and 10 ul of the test compound at various concentrations in dimethyl sulphoxide. The reaction is initiated by addition of 5 ul of substrate (Succinyl-Ala-Phe-Pro-Phe-para-nitroanilide, 5 mg/ml in 235 mM LiCl in trifluoroethanol).
The absorbance at 390 nm versus time is monitored for 90 sec using a Beckman DU70 spectrophotometer. The absorbance versus time data files are transferred to an IBM XT computer and the rate constants determined using the commercial enzfitter program. For each set of data, the uncatalyzed rate of conversion is measured and the uninhibited enzymatic rate determined. The data are expressed as % Activity remaining and are calculated as follows:
% Activity Remaining=(kobs -kuncat)/(kuninh
where kobs is the rate in the presence of a selected test compound, kuncat is the rate in the absence of enzyme, and kuninh is the rate in the presence of enzyme
Data was plotted as the velocity in the absence of the inhibitor (V-) divided by the velocity in the presence of inhibitor (V+) versus the inhibitor concentration. The IC50 can be determined following linear regression as the inhibitor concentration where

For a further assay, the system named is human T-cells. Put plainly: Suppression of Human T-Cell Proliferation Assay (PHA-stimulated, [3H]-thymidine incorporation). Type of assay: cell-based. As to conditions: read-out: IC50. An excerpt:
2) Human T Lymphocyte Inhibition
Inhibition of mitogen-induced T-cell proliferation can be used to profile immunosuppressive activity of test compounds. In the description of the assay which follows, mitogen-induced T-cell activation was used to test the inhibitory potencies of select compounds of the present invention.
In an assay similar to that described by Bradley in Mishell et al. (Eds.), 1980, Selected Methods in Cellular Immunology, pp 156-161, W. H. Freeman & Co., San Fransisco, Calif., T-cells were stimulated by incubation with phytohemagglutinin (PHA) which binds to cell surface molecules, including the T-cell receptor. This stimulation results in proliferation which can be measured by incorporation of [^3 H]-thymidine into cellular DNA.
The immunosuppressive properties of the compounds of the present invention can be determined by adding various concentrations of the compounds to these cultures and measuring the effect on T-cell proliferation.
Suppression of Human T-Cell Proliferation Assay
Fresh LeukoPaks were obtained from the New York Blood Center, New York, N.Y. The cells, including erythrocytes and leukocytes, were diluted with Hank's Balanced Salt Solution (HBSS) (GIBCO, Grand Island, N.Y.) and layered over Lymphoprep (Nycomed Pharma AS, Oslo, Norway) in sterile 50 ml conical centrifuge tubes. Lymphocytes were isolated at the Hank's/Nycomed interface after centrifugation at 2000×g, 4° C. for 15 min. The lymphocytes were washed with Minimal Essential Medium (GIBCO) containing 2% fetal bovine serum (FBS) (Sigma Chemical Co., St. Louis, Mo.), 1% HEPES buffer (GIBCO) and 1% Penicillin-Stretomycin solution (GIBCO).
T-cells were further purified essentially by sheep erythrocyte (SRBC) rosetting as described by Morimoto et al., 1983, J. Immunol. 130:157. The isolated lymphocytes were adjusted to 2×10^7 cells/ml and 5 ml aliquots of the cell suspension were incubated for 10 minutes at room temperature with 5 ml of a 5% SRBC (Cappel, Organon Technika Corp., West Chester, Pa.) suspension. The cells were gently pelleted by centrifugation at 300 rpm for 10 minutes, followed by a 1 hour incubation at room temperature to allow rosette formation. The cells were gently resuspended,layered over Lymphoprep and centrifuged for 30 minutes at 500×g. The pellet, containing rosetted T-cells and SRBC was treated with ice cold buffered ammonium chloride (GIBCO) to lyse the erythrocytes. T-cells were washed twice with HBSS.
Purified T-cells were resuspended at 2×10^6 cells/ml in complete culture medium composed of RPMI-1640 (Whittaker Bioproducts, Walkerville, Md.) with 10% FBS (Sigma), 2 mM L-glutamine (GIBCO), 1% Penicillin-Streptomycin (GIBCO) and 15 mM HEPES (GIBCO). In 96-well plates (Becton Dickinson, Lincoln Park, N.J.), 0.1 ml aliquots of T-cell suspension were mixed with 0.05 ml of 40 μg/ml PHA-M (Sigma). The compounds of this invention were dissolved in dimethylsulfoxide at 10 mM and various dilutions in complete medium were added in duplicate wells (0.05 ml/well). The plates were incubated at 37° C. in a humidified atmosphere of 5% carbon dioxide and 95% air for 72 hours.
Proliferation was assessed by measurement of [^3 H]-thymidine incorporation. During the last 6 hours of incubation, the cells were pulse labelled with 1 μCi/well of [^3 H]-thymidine (New England Nuclear, Boston, Mass.). The cells were harvested onto glass fiber paper using a plate harvester and the radioactivity incorporated into cellular DNA corresponding to individual wells was measured by standard liquid scintillation counting methods.
In general terms: Dividing cells build labelled thymidine or BrdU into new DNA.

For a further assay, the system named is NF-AT. Put plainly: NF-AT Inhibition Assay Directed β-Galactosidase Expression in FGL-5 cells. Type of assay: cell-based. How it is done:
3) NF-AT Assay Stimulation of T-cells leads to the appearance of several transcription factors, including one designated "NF-AT". These factors are involved in regulation of gene expression required for immunologic activation. Some of these transcription factors appear to have functions in a wide variety of cell types. By contrast, NF-AT is found primarily in T-cells and its role is restricted to early gene activation. […] Inhibition of NF-AT activity is measured using FGL-5 cells. FGL-5 is a cloned line of stably transfected Jurkat T-cells that contain two construct in which three tandem copies of the NF-AT DNA binding site direct transcription of both murine CD8 and the lacZ gene, encoding β-galactosidase ([…] et al., 1990, Genes & Development 4:1823). When these cells are stimulated with phorbol esters which activate protein kinase C and calcium ionophore to raise the intracellular calcium concentration, transcriptionally active NF-AT is produced. In T-cells, this normally leads to the expression of IL-2, T-cell growth factor. However, in FGL-5 cells NF-AT activation leads to the production of β-galactosidase which can be detected using an appropriate substrate. […] NF-AT Inhibition Assay Directed β-Galactosidase Expression This assay was performed essentially as described (Bierer et al., 1990, Proc. Natl. Acad. Sci. 87:9231). […] The assays were done with exponentially growing cells whose density was not greater than 0.5 million cells/ml. The cells were resuspended to 3 million cells/ml in medium and 0.1 ml was added to wells of a 96-well plate. The compounds of the present invention were dissolved in either ethanol or dimethylsulfoxide at 10 mM and […] of various dilutions in medium were added to cells in duplicate wells. Treatment controls consisted of duplicate wells containing 0.5 ml/well of either medium, ethanol or dimethylsulfoxide. The ethanol and dimethyl sulfoxide were at the same concentration as was used for the compounds. […] Phorbol dibutyrate (Sigma) and Ionomycin (Calbiochem) were dissolved at 50 μg/ml and 2 mM, respectively and stored at -70° C. […] For unstimulated cell controls, 0.5 ml/well of medium was added to duplicate wells. The plates were incubated overnight (16-18 hours) at 37° C. in a humidified atmosphere of 5% CO2 and air. β-galactosidase activity was measured as the fluorescence generated by the cleavage of 4-methyl umbelliferyl-β-D-galactoside (Sigma) at the β-galactoside bond. After overnight incubation, the cells were centrifuged at 500×g for 3 minutes in the 96-well plates and washed 3 times with PBS. […] The percent inhibition by each concentration of the compounds was calculated as: […]

[1] abbreviates: concentration of inhibitor required for 50% inhibition of enzyme activity, FKBP, substrate Succinyl-Ala-Phe-Pro-Phe-para-nitroanilide, TABLE I.
The mark [2] stands for this setting: concentration inhibiting [3H]-thymidine incorporation of PHA-stimulated T-cells by 50%, 72 hours, TABLE 2.
[3] abbreviates: 50% inhibition of NF-AT directed β-galactosidase activity in FGL-5 cells stimulated with phorbol dibutyrate and ionomycin, TABLE 3.

Sequence of FKBP (P62942 whole entry): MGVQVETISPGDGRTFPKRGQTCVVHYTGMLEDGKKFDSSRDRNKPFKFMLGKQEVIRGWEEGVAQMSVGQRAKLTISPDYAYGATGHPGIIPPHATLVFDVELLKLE

Broadly, the IC50 is the midpoint of a concentration-inhibition curve. In the case of `CC[C@H](C)[C@H](NC(=O)[C@@H]1CCCN1CC(=O)C1CCC2CCCC21)C(=O)NCc1ccccc1` (relative stereo) [Example 40], the values for the IC50 against FKBP, in the assay with human T-cells and with NF-AT were less than 5 µM, 17 µM and 19 µM, respectively.
Regarding `CC[C@H](C)[C@H](NC(=O)[C@@H]1CCCCN1CC(=O)C12CC3CC(CC(C3)C1)C2)C(=O)NCc1ccccc1` [Example 36, L-Isoleucine, N-[1-(2-Adamantan-1-yl-2-Oxoethyl)-L-Homoproline] Benzylamide], the 50% inhibitory concentration (IC50) against FKBP (setting [1]) was 2.2 µM; in the assay with human T-cells (setting [2]), 20 µM; with NF-AT (setting [3]), 13 µM.
For the molecule `CC[C@H](C)[C@H](NC(=O)[C@@H]1CCCN1CC(=O)c1ccco1)C(=O)NCc1ccccc1` [Example 37, L-Isoleucine, N-[1-(2-Furan-2-yl-2-Oxoethyl)-L-Prolyl] Benzylamide], the IC50 at FKBP is greater than 50 µM; with human T-cells, greater than 100 µM; with NF-AT, greater than 100 µM.
For the molecule `CC[C@H](C)[C@H](NC(=O)[C@@H]1CCCN1CC(=O)N1CCC(Cc2ccccc2)CC1)C(=O)NCc1ccccc1` [Example 74, L-Isoleucine, N-[1-[2-(N-(4-Benzylpiperidyl))-2-Oxoethyl]-L-Prolyl] Benzylamide], the IC50 is less than 5 µM at FKBP (setting [1]) and less than 50 µM in the assay on human T-cells (setting [2]).
The like results for `CC[C@H](C)[C@H](NC(=O)[C@@H]1CCCN1CC(=O)N1CCCCC1C)C(=O)NCc1ccccc1` (stereo partly drawn) [Example 75, L-Isoleuclne, N-[1-[2-(2-Methylpiperidine)-2-Oxoethyl]-L-Prolyl] Benzylamide] were, in that order, less than 5 µM and 37 µM.
The like results for `CC[C@H](C)[C@H](NC(=O)[C@@H]1CCCN1CC(=O)NCCO)C(=O)NCc1ccccc1` [Example 76, L-Isoleucine, N-[1-(2-(2-Hydroxyethylamine)-2-Oxoethyl)-L-Prolyl] Benzylamide] were, in that order, greater than 5 µM and greater than 50 µM.
The matching figures for `CC[C@H](C)[C@H](NC(=O)[C@@H]1CCCN1CC(=O)N1CCN(c2ccccc2)CC1)C(=O)NCc1ccccc1` [Example 77, L-Isoleucine, N-[1-[2-(4-Phenylpiperazine)-2-Oxoethyl]-L-Prolyl] Benzylamlde]: less than 5 µM and 28 µM.
In the case of `CC[C@H](C)[C@H](NC(=O)[C@@H]1CCCN1CC(=O)N1CCCC1)C(=O)NCc1ccccc1` [Example 78, L-Isoleucine, N-[1-[2-(1-Pyrrolidine)-2-Oxoethyl]-L-Prolyl] Benzylamide], the 50% inhibitory concentration (IC50) against FKBP (setting [1]) was greater than 5 µM; in the assay with human T-cells (setting [2]), 100 µM.
Consider `CC[C@H](C)[C@H](NC(=O)[C@@H]1CCCN1CC(=O)N1CCC(c2ccccc2)CC1)C(=O)NCc1ccccc1` [Example 82, L-Isoleucine, N-[1-(2-(4-Phenylpiperidyl)-2-Oxoethyl)-L-Prolyl] Benzylamide], for which the results for the IC50 at FKBP (setting [1]) and in the assay on human T-cells (setting [2]) were less than 5 µM and 20 µM, respectively.
For `CC[C@H](C)[C@H](NC(=O)[C@@H]1CCCCN1CC(=O)c1cc(OC)c(OC)c(OC)c1)C(=O)NCc1ccccc1` [Example 153, L-Isoleucine, N-[1-(2-(3,4,5-Trimethoxyphenyl)-2-Oxoethyl)-L-Homoprolyl] Benzylamide], the IC50 with human T-cells (setting [2]) and with NF-AT (setting [3]) was greater than 15 µM throughout.
For the molecule “L-Isoleucine, N-[1-(2-(2-Methoxyphenyl)-2-Oxoethyl)-L-Prolyl] Benzylamide [Example 10]”, the IC50 on FKBP (setting [1]) and in the assay with human T-cells (setting [2]) was less than 50 µM in each case.
For the molecule “L-Isoleucine, N-[1-(2-(Carbo-tert-Butoxy)-2-Oxoethyl)-L-Proline] Benzylamide [Example 25]”, the figures for the IC50 on FKBP (setting [1]) and in the assay with human T-cells (setting [2]) were 0.99 µM and 63 µM, respectively.
In the case of “L-Isoleuclne, N-[1-(2-(1-Methyl-Cyclohexyl)-2-Oxoethyl)-L-Prolyl] Benzylamide [Example 44]”, the 50% inhibitory concentration (IC50) worked out at 12 µM with human T-cells and 24 µM with NF-AT.
